From patent US20210130767A1, “Species of Genus Pholiota and Artificial Cultivation Method and Use Thereof” (Guangdong Institute of Microbiology (Guangdong Detection …, priority 2019, published 2021) come the findings set out here.

In the assay the test system is Staphylococcus aureus. Put plainly: Determination of inhibition zone (agar well diffusion, coating / pour plate method). Particulars: 24 h, 37° C., 1 day, x ± s, n = 3, positive control ampicillin 5 μg/mL, read-out: inhibition zone diameter. The assay is classed as cell-based. The procedure: Bacterial medium: nutrient agar/broth medium;
Nutrition agar/broth medium: beef paste 3 g, peptone 10 g, sodium chloride 5 g, agar 15 g, add water to 1000 ml, and adjust the pH to 7.4 (nutrient broth without agar).
Preparation of ethyl acetate extract: using rice medium (formulated rice and water), the strain of the present invention was incubated and cultured for 45 days, ethyl acetate was added, ultrasonic extraction was performed twice, 40 minutes for each time, and the extract was combined. The solvent was recovered in a rotary evaporator, and steamed to about 1-2 mL of the extract, and transferred to a collection bottle, the ethyl acetate extract is obtained and placed in a vacuum desiccator. After the solvent was completely evaporated, it was transferred to a refrigerator at 4° C. for use, and was filtrated and sterilizd with the bacteria syringe and filter for use.
Positive control preparation: Ampicillin solution, diluted with sterile water to a concentration of 5 μg/mL of the control solution, UV sterilization for 30 min. […]
The counted bacteria solution was diluted to a final concentration of 10^5˜10^6 cfu/mL, and 200 μL of the prepared bacteria suspension was pipetted onto the plate and uniformly coated with a coater. […] The culture was allowed to stand for 1 day, and the size of inhibition zone was measured. […]
For orientation: A growth-free zone around the sample is the usual read-out of agar diffusion tests.

Take `CC1(C)S[C@@H]2[C@H](NC(=O)[C@H](N)c3ccccc3)C(=O)N2[C@H]1C(=O)O` [Positive control, Ampicillin]: the zone of inhibition at 5 µg/mL came to 19.8 ± 1.7 mm.
